Laboratory results: US20060228412A1, “(-)-Hydroxycitric acid for delaying gastric emptying” (priority 2003, published 2006)

Assays:
[1] = Multi-week pilot open clinical weight loss trial with extremely obese patients; type: in vivo, human
Excerpt: In the present studies, data on human usage emerged from a multi-week pilot open clinical weight loss trial with extremely obese patients which was undertaken to gauge the effects of a pouch delivery form of a potassium salt of HCA under the normal circumstances faced in clinical practice with this patient population. Sixteen patients were enrolled, three of whom were diabetics on medications and several others who were suspected of suffering from insulin resistance. The patients ingested 3-4 grams of HCA (in the form of the potassium salt) per day in two divided doses. Aside from being informed that they must eat a carbohydrate-containing meal within one hour of taking the HCA and that they should avoid eating late in the day, they were not instructed to follow any special diet or exercise plan outside their normal habits and no caloric restriction was imposed. This particular form of potassium HCA delivery typically was mixed into water or juice and consumed at mid-morning and mid-afternoon. The delivery was a water-soluble immediate release form. It was a pre-commercial preparation and nearly all of the patients complained regarding the inconvenience and poor taste of the product, albeit there were no other issues of tolerability.
A number of patients continued on the program for 6 weeks. However, most patient data was good for only 3 weeks because two of the diagnosed diabetics experienced severe hypoglycemic reactions. […] Two patients subsequently were placed on phentermine. […] The average weight loss over the 3 week period for these 14 patients was approximately 3.1 pounds per person per week. […] At therapeutically effective dosages, HCA probably should be used with diabetic populations only under a physician's care.

[2] = Blood glucose after HCA meal replacement releasing only in the small intestine; type: in vivo, human
Excerpt: In Example 1, the HCA was delivered in an immediate-release preparation. Our unexpected findings with regard to blood sugar led to the hypothesis that a relatively large dose of HCA might affect blood sugar levels in an individual whose blood sugar is in the low normal range. A dose of 1.5 grams HCA derived from potassium HCA and delivered in a special coated form designed to bypass interaction with stomach acids and to release only in the higher pH of the small intestine was used. A potassium HCA salt granulate was prepared according to Example 1 found in U.S. Pat. No. 6,447,807 and delivered via a dry powdered meal replacement designed to be mixed with liquid to provide 1.5 grams of HCA per 350 calories plain (mixed with water) or approximately 500 calories with milk. […] The subject ate a 500 calorie breakfast consisting the experimental HCA meal replacement. Two hours after this meal, subject's blood glucose level had dropped to 77 mg/dL. […] This finding seemed paradoxical in that the outstanding metabolic effect, which might be thought to indicate blood levels of the drug, was not matched by even a normal level of feelings of fullness. This implied that at least part of the satiation induced by HCA comes about prior to entry of the compound into the blood. […]

[3] = Capsaicin-HCA interaction satiety test; type: in vivo, human; settings: 5 individuals, approximately 2 grams in water about an hour before a meal; before red pepper sauce
Excerpt: The meal itself began with a soup course. […] At this point, bottles of red pepper sauce were supplied and the sauce was applied liberally. […] As is true of Example 3, this provides indirect evidence that HCA acts upon a CCK-related mechanism in inducing satiety.

[4] = Immediacy of HCA-induced satiety, lemonade-like drinks prior to a meal; type: in vivo, human; settings: 5 individuals, approximately 2 grams in sweetened lemonade-like drinks, 16-24 ounces, about 200 calories
Experimental: To test this theory, and the palatability of an HCA salt when mixed with various flavors, a study was conducted in which 5 individuals consumed approximately 2 grams potassium HCA mixed in sweetened lemonade-like drinks prior to a meal. Consumption of the drinks took place over the course of approximately one half hour and involved 16-24 ounces of fluid, but only about 200 calories.

[5] = cited from earlier work
[6] = at the end of 80 days; cited from earlier work
[3H]-5-HT uptake = isolated rat brain cortical slices; cited from earlier work
[7] = mice on a 10% sucrose diet; cited from earlier work

Structure (SMILES): O=C([O-])CC(O)(C(=O)[O-])C(O)C(=O)[O-].[K+].[K+].[K+] (stereo not drawn) [potassium HCA]
- Average weight loss ([1]; 3 week period, 14 patients, 3-4 grams HCA per day in two divided doses, immediate release pouch form): approximately 3.1 pounds per person per week
- Blood pressure ([1]; eight patients with hypertension): normalize blood pressure
- Effect on blood sugar in diabetics ([1]; immediate release format, two diagnosed diabetics had severe hypoglycemic reactions): strong hypoglycemic effect
- Weight loss of one patient ([1]; over 10 weeks): 32 pounds
- Appetite suppression ([1]; several patients): good appetite suppression
- Anorectic action / feelings of fullness ([2]; delivery to the small intestine, by-passing the stomach): blunt the anorectic actions
- Blood glucose level ([2]; two hours after 500 calorie meal with 1.5 grams HCA, coated form released in small intestine, fasting level before 85 mg/dL, one subject): 77 mg/dL
- Feeling of fullness [3]: felt full very soon
- Satiety [4]: satiated soon after the meal began

Structure (SMILES): O=C(O)CC(O)(C(=O)O)C(O)C(=O)O (single isomer, unassigned; (-)) [HCA, (−)-hydroxycitric acid]
- Reduction in food consumption ([5]; experimental animals fed a high-sugar diet, single large oral dose or two divided oral doses): ≥ 10%
- Minimum effective dose, once per day ([5]; oral, once per day): 2.63 mmol/kg
- Minimum effective dose, twice per day ([5]; oral, twice per day): 0.33 mmol/kg
- Net reduction in food intake compared with controls [6]: 4%
- Reduction in weight gain [6]: 78%
- [3H]-5-HT uptake ([3H]-5-HT uptake): inhibit
- Leptin/white adipose tissue ratio compared with control [7]: lower
- Serum insulin compared with control [7]: lower
- Serum leptin compared with control [7]: lower
